Test [1] concerns SOCE in myotubes from mdx mice. The test can be described thus: Pharmacological modulation of SOCE in myotubes of DMD mouse model (mdx). The class given is cell-based. The note with it: FIG. 6; for over-activation of SOCE in DMD mouse model (DMD mutated protein): myotubes from mdx mice. As to the method: Myotubes were generated from 4 animals in each condition. We analysed whether SOCE is increased in myotubes from mxd mice as compared to myotubes from WT mice. To do this, we employed a classical protocol for Ca^2+-entry, in which stores are depleted with tBHQ in a Ca^2+-free buffer and after 10 minutes cells are perfused in a Ca^2+-containing solution (2 mM).
Myotubes from 4 wild type (WT) and 4 mdx mice were loaded with 5 μM Fura-2 AM and placed in an extracellular solution containing 0 mM Ca^2+. Stores were depleted with 50 μM tBHQ and after 10 minutes cells are perfused in a Ca^2+-containing solution (2 mM) in presence or absence of the selected compound (3-(1-(3-methoxy-[1,1-biphenyl]-4-yl)-1H-1,2,3-triazol-4-yl)benzoic acid).

Test [2] relates to SOCE in myotubes from KI-STIM1I115F mice (STIM1 mutated protein). The test can be described thus: Pharmacological modulation of SOCE in myotubes from KI-STIM1 I115F mice. The class given is cell-based, mouse. The note with it: FIG. 4. The method, then: Wild-type and KI-STIM1^I115F primary myoblast were obtained from the following muscles: gastrocnemius, tibialis anterior, quadriceps femoris, extensor digitorum longus, soleus, biceps brachii and diaphragm. Each muscle was placed in a 60 mm dish in phosphate-buffered saline (PBS), removed from the tendon and separated longitudinally and subsequently chopped into smaller pieces. The small fragments were incubated with Pronase® (Protease, Streptomyces griseus, Calbiochem®, 25 KU) for 1 hour at 37° C. in shaking and neutralized with Dulbecco's Modified Eagle's Medium (DMEM, Sigma-Aldrich, Italy), supplemented with 10% heat-inactivated FCS (Gibco, Italy), L-glutamine 50 mg/mL (Sigma-Aldrich, Italy), penicillin 10 U/mL and streptomycin […] (Sigma-Aldrich, Italy), and 1% chicken embryo extract (Sigma-Aldrich, Italy). Tissues were then chopped into smaller pieces passing through pipets of 10 and 5 mL and the supernatant obtained was filtered in 40 μm strainer and centrifuge at RT for 10 minutes at 1200 rpm. […]
Myotubes were generated from 4 animals in each condition. We also analysed whether SOCE in WT myotubes was modified during the lifespan of these animals. […]

Test [3] relates to tBHQ-induced calcium influx into Hek cells (SOCE). The test can be described thus: Store-operated calcium entry (SOCE) by Fura-2 Ca2+ measurements in Hek cells. The class given is cell-based, Human. The note with it: for Calcium response to SOCE-modulators (regulation of SOCE): FIG. 2A, HEK cells, stores depleted with 50 μM tBHQ, compound added with 2 mM Ca2+.
Setting [4] is: Homo sapiens, HEK293, Hek cells, 3 μM.
Where [5] appears, read: Homo sapiens, HEK293, Hek cells.

SMILES strings stand for the structures.

The text below walks through data of patent US12655113B2, “Biphenyl compounds as SOCE modulators, compositions and uses thereof” (Università degli Studi del Piemonte Orientale “Amedeo …, priority 2020, dated 2026).

`COc1cccc(-c2ccc(-n3cc(-c4cccc(C(=O)O)c4)nn3)cc2)c1` [Compound 13, 3-(1-(3′-Methoxy-[1,1′-biphenyl]-4-yl)-1H-1,2,3-triazol-4-yl)benzoic acid]: the “SOCE in myotubes from mdx mice” value in test [1] (10 μM) is given as “impairs SOCE”. In addition, in test [1], the “over-activation of SOCE in DMD mouse model (DMD mutated protein)” value is given as “able to revert the over-activation of DMD mutated protein”. In addition, the “over-activation of STIM1 mutated protein” value in test [2] is listed as “able to revert the over-activation of STIM1 mutated protein”. Also, in test [3], the “Calcium response to SOCE-modulators (regulation of SOCE)” value (shortened to “Calcium response to SOCE-modulators”) is on record as “negatively regulate SOCE”. Besides, the inhibition at 3 µM in test [3] (setting [4]) came out at 85 ± 9%.

On to `COc1cc(OC)cc(-c2ccc(-c3cn(-c4cccc(C(=O)O)c4)nn3)cc2)c1` [Compound 38, 3-(4-(3′,5′-dimethoxy-[1,1′-biphenyl]-4-yl)-1H-1,2,3-triazol-1-yl)benzoic acid], for which, in test [3] (setting [5]), the inhibition at 10 µM is 86.2 ± 4.2%.

On to `O=C(O)c1cccc(-c2cn(-c3ccc(-c4ccc5c(c4)OCCO5)cc3)nn2)c1` [Compound 18, 3-(1-(4-(2,3-dihydrobenzo[b][1,4]dioxin-6-yl)phenyl)-1H-1,2,3-triazol-4-yl)benzoic acid], for which the “over-activation of SOCE in DMD mouse model (DMD mutated protein)” value in test [1] is listed as “able to revert the over-activation of SOCE in DMD mouse model”. Also, the “over-activation of STIM1 mutated protein” value in test [2] is “able to revert the over-activation of STIM1 mutated proteins”. Further, the “Calcium response to SOCE-modulators” value in test [3] is “negatively regulate SOCE”. The inhibition at 10 µM in test [3] (setting [5]) is 82.7 ± 4%.

On to `COc1cccc(-c2ccc(-n3cc(-c4cccc(C(=O)O)c4)nn3)cc2)c1OC` [Compound 20, 3-(1-(2′,3′-dimethoxy-[1,1′-biphenyl]-4-yl)-1H-1,2,3-triazol-4-yl)benzoic acid], for which, in test [3], the “Calcium response to SOCE-modulators” value is listed as “negatively regulate SOCE”.

For the compound `COc1ccccc1-c1ccc(-n2cc(-c3cccc(C(=O)O)c3)nn2)cc1` [Compound 12, 3-(1-(2′-methoxy-[1,1′-biphenyl]-4-yl)-1H-1,2,3-triazol-4-yl)benzoic acid], in test [3] (setting [5]), the inhibition at 10 µM is 47.2 ± 7.2%.

Consider `COc1ccccc1-c1ccc(-c2cn(-c3cccc(C(=O)O)c3)nn2)cc1` [Compound 35, 3-(4-(2′-methoxy-[1,1′-biphenyl]-4-yl)-1H-1,2,3-triazol-1-yl)benzoic acid], for which the inhibition at 10 µM in test [3] (setting [5]) came to 59.6 ± 5.43%.

Take `COc1ccc(OC)c(-c2ccc(-n3cc(-c4ccnc(C(=O)O)c4)nn3)cc2)c1` [Compound 25, 4-(1-(2′,5′-dimethoxy-[1,1′-biphenyl]-4-yl)-1H-1,2,3-triazol-4-yl)picolinic acid]: in test [3] (setting [5]), the inhibition at 10 µM worked out at 79.9 ± 4.1%.

For the compound `O=C(O)c1cccc(-c2cn(-c3ccc(-c4ccc5c(c4)OCO5)cc3)nn2)c1` [Compound 17, 3-(1-(4-(benzo[d][1,3]dioxol-5-yl)phenyl)-1H-1,2,3-triazol-4-yl)benzoic acid], in test [3] (setting [5]), the inhibition at 10 µM was 37.3 ± 4.2%.

Regarding `COc1ccc(OC)c(-c2ccc(-n3cc(-c4ccncc4F)nn3)cc2)c1` [Compound 26, 4-(1-(2′,5′-dimethoxy-[1,1′-biphenyl]-4-yl)-1H-1,2,3-triazol-4-yl)-3-fluoropyridine], in test [3], the “Calcium response to SOCE-modulators” value is listed as “no activity”.

On to `COc1ccc(OC)c(-c2ccc(-c3cn(-c4cccc(C(=O)O)c4)nn3)cc2)c1` [Compound 46, 3-(4-(2′,5′-dimethoxy-[1,1′-biphenyl]-4-yl)-1H-1,2,3-triazol-1-yl)benzoic acid], for which the inhibition at 3 µM in test [3] (setting [4]) is 78.7 ± 3.8%. For the same compound, the inhibition at 10 µM in test [3] (setting [5]) is 87.8 ± 2.9%.

Regarding `COc1cc(OC)cc(-c2ccc(-n3cc(-c4cccc(C(=O)O)c4)nn3)cc2)c1` [Compound 16, 3-(1-(3′,5′-dimethoxy-[1,1′-biphenyl]-4-yl)-1H-1,2,3-triazol-4-yl)benzoic acid], the inhibition at 10 µM in test [3] (setting [5]) came out at 77.4 ± 4.7%.

With `COc1ccc(OC)c(-c2ccc(-n3cc(-c4cccc(C(=O)O)c4)nn3)cc2)c1` [Compound 24, 3-(1-(2′,5′-dimethoxy-[1,1′-biphenyl]-4-yl)-1H-1,2,3-triazol-4-yl)benzoic acid], in test [3] (setting [4]), the inhibition at 3 µM was 85.8 ± 6.5%.

With `COc1cccc(OC)c1-c1ccc(-c2cn(-c3cccc(C(=O)O)c3)nn2)cc1` [Compound 44, 3-(4-(2′,6′-dimethoxy-[1,1′-biphenyl]-4-yl)-1H-1,2,3-triazol-1-yl)benzoic acid], the activity at 3 µM in test [3] (Homo sapiens, HEK293, Hek cells, 3 μM, read-out: Residual activity of SOCE) stood at 122.8 ± 0.89%.

Consider `COc1ccc(-c2ccc(-c3cn(-c4cccc(C(=O)O)c4)nn3)cc2)c(OC)c1` [Compound 37, 3-(4-(2′,4′-dimethoxy-[1,1′-biphenyl]-4-yl)-1H-1,2,3-triazol-1-yl)benzoic acid], for which the inhibition at 10 µM in test [3] (setting [5]) came to 77.1 ± 0.9%.

Consider `COc1cccc(-c2ccc(-c3cn(-c4cccc(C(=O)O)c4)nn3)cc2)c1` [Compound 36, 3-(4-(3′-methoxy-[1,1′-biphenyl]-4-yl)-1H-1,2,3-triazol-1-yl)benzoic acid], for which the inhibition at 10 µM in test [3] (setting [5]) stood at 87 ± 1.1%.

Regarding `COc1cccc(-c2ccc(-c3cn(-c4cccc(C(=O)O)c4)nn3)cc2)c1OC` [Compound 42, 3-(4-(2′,3′-dimethoxy-[1,1′-biphenyl]-4-yl)-1H-1,2,3-triazol-1-yl)benzoic acid], in test [3] (setting [4]), the inhibition at 3 µM was determined as 93.2 ± 5.1%.

As for `CSc1cccc(-c2ccc(-n3cc(-c4cccc(C(=O)O)c4)nn3)cc2)c1` [Compound 11, 3-(1-(3′-(methylthio)-[1,1′-biphenyl]-4-yl)-1H-1,2,3-triazol-4-yl)benzoic acid], the inhibition at 10 µM in test [3] (setting [5]) amounted to 72.6 ± 13.6%.

As to `COc1ccc(-c2ccc(-n3cc(-c4cccc(C(=O)O)c4)nn3)cc2)c(OC)c1` [Compound 15, 3-(1-(2′,4′-dimethoxy-[1,1′-biphenyl]-4-yl)-1H-1,2,3-triazol-4-yl)benzoic acid], the inhibition at 10 µM in test [3] (setting [5]) came out at 68.1 ± 4.2%.

Take `COC(=O)c1cc(-n2cc(-c3ccc(-c4cc(OC)ccc4OC)cc3)nn2)ccn1` [Compound 47, methyl 4-(4-(2′,5′-dimethoxy-[1,1′-biphenyl]-4-yl)-1H-1,2,3-triazol-1-yl)picolinate]: the inhibition at 10 µM in test [3] (setting [5]) was 73.5 ± 1.4%.
